Values quoted from earlier work as cited in patent US20190201418A1, “TREATMENT OF UTERINE FIBROIDS BY INTRAVAGINAL ADMINISTRATION OF A LOW DOSE OF SELECTIVE PROGESTERONE RECEPTOR MODULATOR (SPRM), ANTI-PROGESTIN, OR ANTI-PROGESTATIONAL AGENT” (ARSTAT, INC., priority 2011, published 2019).

What was measured:
liver enzymes = conditions: oral
[1] = test system: endometrial lining of the uterus; conditions: oral
glucocorticoid blockade = conditions: in vivo
[2] = test system: symptomatic uterine fibroids; conditions: oral 5-mg and 10-mg tablets, Phase III
[3] = oral mifepristone 10 mg/day or higher

COCC(=O)[C@@]1(OC(C)=O)CC[C@H]2[C@@H]3CCC4=CC(=O)CCC4=C3[C@@H](c3ccc(N(C)C)cc3)C[C@@]21C [CDB-4124]
safety finding leading to suspension of the Phase III studies (liver enzymes): significant increases in liver enzymes

COC[C@]1(OC)CC[C@H]2[C@@H]3CCC4=CC(=O)CCC4=C3[C@@H](c3ccc(/C=N/O)cc3)C[C@@]21C [asoprisnil]
safety finding leading to termination of the Phase III studies [1]: changes in the endometrial lining of the uterus that resulted in additional invasive procedures in some patients

CC#C[C@]1(O)CC[C@H]2[C@@H]3CCC4=CC(=O)CCC4=C3[C@@H](c3ccc(N(C)C)cc3)C[C@@]21C [mifepristone]
reduction of uterine volume and incidence of amenorrhea (uterine fibroids; oral mifepristone 2.5 mg/day): appreciably smaller reduction of uterine volume and a lower incidence of amenorrhea | ability to reduce uterine volume and eliminate fibroid-related symptoms (uterine fibroids; oral mifepristone 5 mg): limited | incidence of side effects (endometrial hyperplasia, hot flashes, elevated liver enzymes) (uterine fibroids; [3]): seems to be greater than desired | reduction of uterine and fibroid volumes and related symptoms (uterine fibroids; [3]): effective in the reduction of uterine and fibroid volumes and related symptoms | dose at which glucocorticoid blockade is reported (glucocorticoid blockade): ≥ 50 mg

CC(=O)O[C@]1(C(C)=O)CC[C@H]2[C@@H]3CCC4=CC(=O)CCC4=C3[C@@H](c3ccc(N(C)C)cc3)C[C@@]21C [ulipristal acetate]
efficacy and safety in the treatment of symptomatic uterine fibroids [2]: confirmed the efficacy and safety
